In paper PMC6099740, “Design, Synthesis and Biological Evaluation of 6,7-Disubstituted-4-phenoxyquinoline Derivatives Bearing Pyridazinone Moiety as c-Met Inhibitors” (Molecules : A Journal of Synthetic Chemistry and Natural …, 2018) one finds IC50 and melting point data, which are given here for 17 compounds.

Bounds are passed on as bounds.

One data set has as its target c-Met kinase (Homo sapiens, UniProt P08581). The data set can be described thus: c-Met kinase inhibition assay (HTRF; mobility shift).
A further data set has as its system MCF-7 cells. Nature of the data set: MTT cytotoxicity assay, MCF-7. The data set is classed as cell-based. The following applies: Homo sapiens, MCF7, 72 h. As for the experimental part:
(§1) The results expressed as IC50 values were summarized in Table 1, and the values were the average of at least two independent experiments.
(§2) The cancer cell lines were cultured in minimum essential medium (MEM) supplement with 10% fetal bovine serum (FBS). […] The test compounds at indicated final concentrations were added to the culture medium and the cell cultures were continued for 72 h. […] All of the compounds were tested two times in each of the cell lines. The results expressed as inhibition rates or IC50 (half-maximal inhibitory concentration) were the averages of two determinations and calculated by using the Bacus Laboratories Incorporated Slide Scanner (Bliss) software (the Bacus Laboratories Inc. Slide Scanner (BLISS) system, Lombard, IL, USA)..

The next data set concerns A549 cells. The data set can be described thus: MTT cytotoxicity assay, A549. In kind it is cell-based. The following applies: Homo sapiens, 72 h. The protocol:
as §1, §2
(Tetrazolium assays rely on reduction of a dye to a coloured formazan, in cell work by metabolically active cells.)

In a further data set the test system is HepG2 cells. Nature of the data set: MTT cytotoxicity assay, HepG2. The data set is classed as cell-based. The following applies: Homo sapiens, 72 h. As for the experimental part: as §1
The cancer cell lines were cultured in minimum essential medium (MEM) supplement with 10% fetal bovine serum (FBS). Approximately 4 × 10^3 cells, suspended in MEM medium, were plated onto each well of a 96-well plate and incubated in 5% CO2 at 37 °C for 24 h. The test compounds at indicated final concentrations were added to the culture medium and the cell cultures were continued for 72 h. Fresh MTT was added to each well at a terminal concentration of 5 μg/mL and incubated with cells at 37 °C for 4 h. The formazan crystals were dissolved in 100 μL DMSO each well, and the absorbency at 492 nm (for absorbance of MTT formazan) and 630 nm (for the reference wavelength) was measured with the ELISA reader. All of the compounds were tested two times in each of the cell lines. The results expressed as inhibition rates or IC50 (half-maximal inhibitory concentration) were the averages of two determinations and calculated by using the Bacus Laboratories Incorporated Slide Scanner (Bliss) software (the Bacus Laboratories Inc. Slide Scanner (BLISS) system, Lombard, IL, USA)..

Sequence of c-Met kinase (P08581 25-1390): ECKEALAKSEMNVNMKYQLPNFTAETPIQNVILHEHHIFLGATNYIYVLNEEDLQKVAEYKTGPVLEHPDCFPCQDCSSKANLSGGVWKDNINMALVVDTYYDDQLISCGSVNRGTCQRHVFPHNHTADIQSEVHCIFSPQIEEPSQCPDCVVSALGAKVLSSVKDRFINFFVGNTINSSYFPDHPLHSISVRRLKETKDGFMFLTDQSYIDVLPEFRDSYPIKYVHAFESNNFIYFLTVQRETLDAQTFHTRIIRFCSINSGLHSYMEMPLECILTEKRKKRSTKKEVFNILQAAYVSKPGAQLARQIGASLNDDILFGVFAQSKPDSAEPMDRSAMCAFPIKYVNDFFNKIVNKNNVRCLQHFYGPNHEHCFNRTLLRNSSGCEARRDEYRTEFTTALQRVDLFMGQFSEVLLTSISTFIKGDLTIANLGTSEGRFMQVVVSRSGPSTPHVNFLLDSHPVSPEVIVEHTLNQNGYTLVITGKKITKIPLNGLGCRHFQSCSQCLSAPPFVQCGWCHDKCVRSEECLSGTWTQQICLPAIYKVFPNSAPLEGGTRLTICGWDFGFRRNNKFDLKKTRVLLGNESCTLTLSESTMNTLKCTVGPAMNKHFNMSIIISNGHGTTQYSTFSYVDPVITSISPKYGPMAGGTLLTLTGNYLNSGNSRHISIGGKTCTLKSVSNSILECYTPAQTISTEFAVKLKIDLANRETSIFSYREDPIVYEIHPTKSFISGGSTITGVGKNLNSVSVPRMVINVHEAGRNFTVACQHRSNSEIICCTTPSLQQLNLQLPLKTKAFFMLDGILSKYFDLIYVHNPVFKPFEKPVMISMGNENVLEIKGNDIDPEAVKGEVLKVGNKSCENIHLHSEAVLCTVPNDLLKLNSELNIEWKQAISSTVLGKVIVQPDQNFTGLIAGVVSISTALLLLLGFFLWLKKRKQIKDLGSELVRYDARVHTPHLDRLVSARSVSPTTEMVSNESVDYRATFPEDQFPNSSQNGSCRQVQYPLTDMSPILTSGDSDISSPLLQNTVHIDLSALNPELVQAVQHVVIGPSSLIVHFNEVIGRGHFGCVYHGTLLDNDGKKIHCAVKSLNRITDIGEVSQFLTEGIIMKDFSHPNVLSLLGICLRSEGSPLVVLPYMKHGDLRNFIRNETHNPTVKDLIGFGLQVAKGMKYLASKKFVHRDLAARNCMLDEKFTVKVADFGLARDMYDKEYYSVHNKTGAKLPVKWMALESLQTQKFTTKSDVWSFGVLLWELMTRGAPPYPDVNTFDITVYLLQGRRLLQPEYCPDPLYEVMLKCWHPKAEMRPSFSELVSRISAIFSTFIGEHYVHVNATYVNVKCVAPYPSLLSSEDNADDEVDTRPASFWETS
Protocol for c-Met kinase: All kinase assays were performed in 96-well plates in a 50 µL reaction volume. The kinase buffer contains 50 mM HEPES, pH 7.5, 10 mM MgCl2, 0.0015% Brij-35 and 2 mM DTT. The stop buffer contains 100 mM HEPES, pH 7.5, 0.015% Brij-35, 0.2% Coating Reagent 3 and 50 mM EDTA. Dilute the compounds to 500 µM by 100% DMSO, then transfer 10 µL of compound to a new 96-well plate as the intermediate plate, add 90 µL kinase buffer to each well. Transfer 5 µL of each well of the intermediate plate to 384-well plates. The following amounts of enzyme and substrate were used per well: kinase base buffer, FAM-labeled peptide, ATP and enzyme solution. Wells containing the substrate, enzyme, DMSO without compound were used as DMSO control. Wells containing just the substrate without enzyme were used as low control. Incubate at room temperature for 10 min. Add 10 µL peptide solution to each well. […] At last collect data on Caliper program and convert conversion values to inhibition values. Percent inhibition = (max − conversion)/(max − min) × 100. ‘max’ stands for DMSO control; ‘min’ stands for low control [20].

With `COc1cc2c(Oc3ccc(NC(=O)c4nn(-c5ccc(F)cc5)ccc4=O)cc3F)ccnc2cc1OCCCN1CCOCC1` [Compound 22], the melting point – broadly, the temperature, or range, at which the solid turns liquid – was in the range of 152.3 to 153.5 °C. Besides, on c-Met kinase, the concentration for half-maximal inhibition (IC50) (in general, the concentration that inhibits the measured activity by half) is 47 nM. Besides, in the data set with MCF-7 cells, the IC50 amounted to 210 ± 20 nM. The same compound came in with an IC50 in the data set on A549 cells of 250 ± 10 nM. In addition, in the data set on HepG2 cells, 2230 ± 350 nM corresponded to half-maximal inhibition (IC50).
The matching figures for `COc1cc2c(Oc3ccc(NC(=O)c4nn(-c5ccc(Cl)cc5)ccc4=O)cc3F)ccnc2cc1OCCCN1CCOCC1` [Compound 23, 1-(4-Chlorophenyl)-N-(3-fluoro-4-((6-methoxy-7-(3-morpholinopropoxy)quinolin-4-yl)oxy)phenyl)-4-oxo-1,4-dihydropyridazine-3-carboxamide]: 138.2 to 139.1 °C, greater than 500 nM, greater than 50000 nM, greater than 50000 nM and greater than 50000 nM.
As for `COc1cc2c(Oc3ccc(NC(=O)c4nn(-c5ccc(Br)cc5)ccc4=O)cc3F)ccnc2cc1OCCCN1CCOCC1` [Compound 24, 1-(4-Bromophenyl)-N-(3-fluoro-4-((6-methoxy-7-(3-morpholinopropoxy)quinolin-4-yl)oxy)phenyl)-4-oxo-1,4-dihydropyridazine-3-carboxamide], the melting point is 125.7 to 127.1 °C. In addition, the 50% inhibitory concentration (IC50) at c-Met kinase was greater than 500 nM. The half-maximal inhibitory concentration (IC50) with MCF-7 cells was greater than 50000 nM. The compound further gave a concentration for half-maximal inhibition (IC50) in the data set with A549 cells greater than 50000 nM. The same compound gave a half-inhibitory concentration (IC50) in the data set on HepG2 cells greater than 50000 nM.
As for `COc1ccc(-n2ccc(=O)c(C(=O)Nc3ccc(Oc4ccnc5cc(OCCCN6CCOCC6)c(OC)cc45)c(F)c3)n2)cc1` [Compound 25, N-(3-Fluoro-4-((6-methoxy-7-(3-morpholinopropoxy)quinolin-4-yl)oxy)phenyl)-1-(4-methoxyphenyl)-4-oxo-1,4-dihydropyridazine-3-carboxamide], the melting point was 153.8 to 155.2 °C. Besides, the half-maximal inhibitory concentration (IC50) on c-Met kinase worked out at 233 nM. The compound further displayed an IC50 with MCF-7 cells of 27200 ± 1440 nM. Besides, in the data set with A549 cells, the IC50 was 4240 ± 620 nM. Half-maximal inhibition in the data set on HepG2 cells (IC50) was put at 6750 ± 820 nM.
In turn, `COc1cc2c(Oc3ccc(NC(=O)c4nn(-c5ccc(F)c(Cl)c5)ccc4=O)cc3F)ccnc2cc1OCCCN1CCOCC1` [Compound 26, 1-(3-Chloro-4-fluorophenyl)-N-(3-fluoro-4-((6-methoxy-7-(3-morpholinopropoxy)quinolin-4-yl)oxy)phenyl)-4-oxo-1,4-dihydropyridazine-3-carboxamide] registered a melting point of 138.1 to 140.6 °C. The IC50 at c-Met kinase was determined as 352 nM. Moreover, the IC50 in the data set with MCF-7 cells came out at 5960 ± 770 nM. Moreover, in the data set on A549 cells, 3700 ± 570 nM corresponded to half-maximal inhibition (IC50). In the data set on HepG2 cells, the 50% inhibitory concentration (IC50) was greater than 50000 nM.
The matching figures for `COc1cc2c(Oc3ccc(NC(=O)c4nn(-c5ccc(Br)cc5F)ccc4=O)cc3F)ccnc2cc1OCCCN1CCOCC1` [Compound 27, 1-(4-Bromo-2-fluorophenyl)-N-(3-fluoro-4-((6-methoxy-7-(3-morpholinopropoxy)quinolin-4-yl)oxy)phenyl)-4-oxo-1,4-dihydropyridazine-3-carboxamide]: 113.7 to 115.1 °C, 478 nM, greater than 50000 nM, greater than 50000 nM and greater than 50000 nM.
For the compound `COc1cc2c(Oc3ccc(NC(=O)c4nn(-c5ccc(Cl)c(C(F)(F)F)c5)ccc4=O)cc3F)ccnc2cc1OCCCN1CCOCC1` [Compound 28, 1-(4-Chloro-3-(trifluoromethyl)phenyl)-N-(3-fluoro-4-((6-methoxy-7-(3-morpholinopropoxy)quinolin-4-yl)oxy)phenyl)-4-oxo-1,4-dihydropyridazine-3-carboxamide], the melting point lay within 203.5 to 204.7 °C. Also, on c-Met kinase, the IC50 is 382 nM. In the data set on MCF-7 cells, this compound gave a half-maximal inhibitory concentration (IC50) of 7490 ± 870 nM. For the same compound, half-maximal inhibition in the data set with A549 cells (IC50) required 5250 ± 720 nM. Besides, the half-maximal inhibitory concentration (IC50) in the data set with HepG2 cells was greater than 50000 nM.
In turn, `COc1cc2c(Oc3ccc(NC(=O)c4nn(-c5ccccc5)ccc4=O)cc3F)ccnc2cc1OCCCN1CCOCC1` [Compound 29, N-(3-Fluoro-4-((6-methoxy-7-(3-morpholinopropoxy)quinolin-4-yl)oxy)phenyl)-4-oxo-1-phenyl-1,4-dihydropyridazine-3-carboxamide] showed a melting point of 118.7 to 119.8 °C. Also, the half-inhibitory concentration (IC50) at c-Met kinase is 16 nM. In the data set with MCF-7 cells, this compound showed an IC50 of 30 ± 10 nM. In addition, the IC50 in the data set with A549 cells amounted to 200 ± 20 nM. Moreover, the IC50 in the data set with HepG2 cells came out at 2270 ± 360 nM.
In the case of `COc1cc2c(Oc3ccc(NC(=O)c4nn(-c5ccc(F)cc5)ccc4=O)cc3F)ccnc2cc1OCCCN1CCCCC1` [Compound 30, N-(3-Fluoro-4-((6-methoxy-7-(3-(piperidin-1-yl)propoxy)quinolin-4-yl)oxy)phenyl)-1-(4-fluorophenyl)-4-oxo-1,4-dihydropyridazine-3-carboxamide], the melting point lay within 149.4 to 151.1 °C. The half-maximal inhibitory concentration (IC50) on c-Met kinase was 17 nM. Further, the midpoint of inhibition in the data set on MCF-7 cells, the IC50, lay at 690 ± 20 nM. The compound further gave an IC50 in the data set on A549 cells of 310 ± 10 nM. In the data set on HepG2 cells, this compound showed an IC50 of 990 ± 10 nM.
Take `COc1cc2c(Oc3ccc(NC(=O)c4nn(-c5ccc(Cl)cc5)ccc4=O)cc3F)ccnc2cc1OCCCN1CCCCC1` [Compound 31, 1-(4-Chlorophenyl)-N-(3-fluoro-4-((6-methoxy-7-(3-(piperidin-1-yl)propoxy)quinolin-4-yl)oxy)phenyl)-4-oxo-1,4-dihydropyridazine-3-carboxamide]: the melting point was 158.2 to 159.6 °C. In addition, the half-maximal inhibitory concentration (IC50) on c-Met kinase came to 78 nM. For the same compound, the IC50 with MCF-7 cells worked out at 1160 ± 60 nM. The compound also yielded a concentration for half-maximal inhibition (IC50) in the data set on A549 cells of 570 ± 20 nM. The compound further displayed a half-inhibitory concentration (IC50) in the data set on HepG2 cells of 690 ± 30 nM.
Turning to `COc1cc2c(Oc3ccc(NC(=O)c4nn(-c5ccc(Br)cc5)ccc4=O)cc3F)ccnc2cc1OCCCN1CCCCC1` [Compound 32, 1-(4-Bromophenyl)-N-(3-fluoro-4-((6-methoxy-7-(3-(piperidin-1-yl)propoxy)quinolin-4-yl)oxy)phenyl)-4-oxo-1,4-dihydropyridazine-3-carboxamide], the melting point was 141.3 to 143.4 °C. The concentration for half-maximal inhibition (IC50) on c-Met kinase was found to be 246 nM. In the data set with MCF-7 cells, this compound registered a half-inhibitory concentration (IC50) of 2450 ± 390 nM. This compound registered a half-maximal inhibitory concentration (IC50) in the data set on A549 cells of 2890 ± 460 nM. Also, the half-maximal inhibitory concentration (IC50) in the data set on HepG2 cells worked out at 1750 ± 240 nM.
In the case of `COc1ccc(-n2ccc(=O)c(C(=O)Nc3ccc(Oc4ccnc5cc(OCCCN6CCCCC6)c(OC)cc45)c(F)c3)n2)cc1` [Compound 33, N-(3-Fluoro-4-((6-methoxy-7-(3-(piperidin-1-yl)propoxy)quinolin-4-yl)oxy)phenyl)-1-(4-methoxyphenyl)-4-oxo-1,4-dihydropyridazine-3-carboxamide], the melting point fell in the range of 105.4 to 106.5 °C. The IC50 at c-Met kinase was 56 nM. The compound also registered an IC50 in the data set with MCF-7 cells of 2350 ± 370 nM. Moreover, in the data set with A549 cells, 2780 ± 440 nM corresponded to half-maximal inhibition (IC50). The same compound gave a 50% inhibitory concentration (IC50) in the data set on HepG2 cells of 630 ± 80 nM.
For `COc1cc2c(Oc3ccc(NC(=O)c4nn(-c5ccc(F)c(Cl)c5)ccc4=O)cc3F)ccnc2cc1OCCCN1CCCCC1` [Compound 34, 1-(3-Chloro-4-fluorophenyl)-N-(3-fluoro-4-((6-methoxy-7-(3-(piperidin-1-yl)propoxy)quinolin-4-yl)oxy)phenyl)-4-oxo-1,4-dihydropyridazine-3-carboxamide] the same measures were 121.7 to 123.4 °C, 2 nM, 150 ± 40 nM, 360 ± 40 nM and 1280 ± 110 nM.
On to `COc1cc2c(Oc3ccc(NC(=O)c4nn(-c5ccc(F)cc5)ccc4=O)cc3F)ccnc2cc1OCCCN1CCN(C)CC1` [Compound 46, N-(3-Fluoro-4-((6-methoxy-7-(3-(4-methylpiperazin-1-yl)propoxy)quinolin-4-yl)oxy)phenyl)-1-(4-fluorophenyl)-4-oxo-1,4-dihydropyridazine-3-carboxamide], for which the IC50 stood at 39 nM on c-Met kinase, 1660 ± 220 nM with MCF-7 cells, 1640 ± 220 nM in the data set on A549 cells and 7510 ± 870 nM in the data set with HepG2 cells.
For `COc1cc2c(Oc3ccc(NC(=O)c4nn(-c5ccc(F)c(Cl)c5)ccc4=O)cc3F)ccnc2cc1OCCCN1CCN(C)CC1` [Compound 50, 1-(3-Chloro-4-fluorophenyl)-N-(3-fluoro-4-((6-methoxy-7-(3-(4-methylpiperazin-1-yl)propoxy)quinolin-4-yl)oxy)phenyl)-4-oxo-1,4-dihydropyridazine-3-carboxamide] the same measures were 2 nM, 20 ± 10 nM, 20 ± 10 nM and 2460 ± 390 nM.
For `COc1cc2c(Oc3ccc(NC(=O)c4nn(-c5ccc(Br)cc5F)ccc4=O)cc3F)ccnc2cc1OCCCN1CCN(C)CC1` [Compound 51, 1-(4-Bromo-2-fluorophenyl)-N-(3-fluoro-4-((6-methoxy-7-(3-(4-methylpiperazin-1-yl)propoxy)quinolin-4-yl)oxy)phenyl)-4-oxo-1,4-dihydropyridazine-3-carboxamide] the same measures were 123 nM, 5430 ± 740 nM, 5630 ± 750 nM and 6390 ± 810 nM.
Consider `COc1cc2c(Oc3ccc(NC(=O)C4(C(=O)Nc5ccc(F)cc5)CC4)cc3F)ccnc2cc1OCCCN1CCOCC1` [Foretinib, reference compound], for which the IC50 in the data set with HepG2 cells was found to be 840 ± 70 nM.
